Source: patent US20240238265A1 (priority 2020, published 2024)

Key:
[1] = 1 h, pH 7.4
[2] = system: pseudotyped VSV expressing EBOV glycoprotein; test: microbe, parasite or virus in culture; format: cell-based, Ebola virus (EBOV); conditions: Zaire ebolavirus, Vero, 24 h, read-out: EC50 (uM) Pseudotype Assays EBOV
EBOV-Zaire = test: microbe, parasite or virus in culture; format: cell-based, Ebola virus (EBOV)
[3] = 1 h, pH 7.4; remark: listed apart in the source
[4] = system: pseudotyped VSV expressing SUDV glycoprotein; test: microbe, parasite or virus in culture; format: cell-based, Sudan virus (SUDV); conditions: Vesicular stomatitis virus, Vero, 24 h, read-out: EC50 (uM) Pseudotype Assays SUDV
in vitro = conditions: African green monkey
SUDV-Gulu = test: microbe, parasite or virus in culture; format: cell-based, Sudan virus (SUDV)
[5] = 1 h, pH 7.4; remark: listed apart in the source
[6] = system: pseudotyped VSV expressing MARV glycoprotein; test: microbe, parasite or virus in culture; format: cell-based, Marburg virus (MARV); conditions: Vesicular stomatitis virus, Vero, 24 h, read-out: EC50 (uM) Pseudotype Assays MARV
[7] = 1 h, pH 7.4; remark: listed apart in the source
SUDV (strain Gulu) = test: microbe, parasite or virus in culture; format: cell-based, Sudan virus (SUDV)
[8] = 1 h, pH 7.4; remark: listed apart in the source
[9] = system: pseudotyped VSV expressing BDBV glycoprotein; test: microbe, parasite or virus in culture; format: cell-based, Bundibugyo virus (BDBV); conditions: Vesicular stomatitis virus, Vero, 24 h, read-out: EC50 (uM) Pseudotype Assays BDBV
WT EBOV-Mayinga = test: microbe, parasite or virus in culture; format: cell-based, Ebola virus (EBOV)
EBOV (strain kikwit) = test: microbe, parasite or virus in culture; format: cell-based, Ebola virus (EBOV)
[10] = 1 h, pH 7.4; remark: listed apart in the source

Row | SMILES | Percent parent compound remaining at 60 minutes in liver microsomes, Guinea Pig [1] [%] | EC50 [2] [µM] | Percent parent compound remaining at 60 minutes in liver microsomes, Human [3] [%] | EC50 [4] [µM] | CC50 (in vitro) [nM] | Percent parent compound remaining at 60 minutes in liver microsomes, Monkey [5] [%] | EC50 [6] [µM] | Percent parent compound remaining at 60 minutes in liver microsomes, Rat [7] [%] | Percent parent compound remaining at 60 minutes in liver microsomes, Mouse [8] [%] | EC50 [9] [µM] | Percent parent compound remaining at 60 minutes in liver microsomes, Dog [10] [%] | other results
1 | CCC=C1C2CC3(C(=S)N[C@H]4CC[C@H](N)CC4)CC1CC(c1ccccc1)(C2)C3 (relative stereo) [Example D2, trans-N-(4-aminocyclohexyl)-3-phenyl-6-propylideneadamantane-1-carbothioamide] | 100 | 0.051 | 100 | 0.072 | 1780 | 100 |  |  |  |  |  | EBOV-Zaire SI50 (CC50/EC50) (EBOV-Zaire): 3.3; EC50 (EBOV-Zaire; Zaire ebolavirus, Vero, read-out: EBOV-Zaire EC50 (uM)): 2.6 µM; SUDV-Gulu SI50 (CC50/EC50) (SUDV-Gulu): 78; EC50 (SUDV-Gulu; Sudan ebolavirus, Vero, read-out: SUDV-Gulu EC50 (uM)): 0.11 µM
2 | CCC1C2CC3(C(=O)N[C@H]4CC[C@H](N)CC4)CC1CC(c1ccccc1)(C2)C3 (stereo partly shown) [Example F2] | 68 | 0.011 | 85 | 0.27 | 12600 | 100 | 3.1 | 86.5 | 48 | 0.03 | 80 | SUDV-Gulu SI50 (CC50/EC50) (SUDV (strain Gulu)): 291.26; EC50 (SUDV (strain Gulu); Sudan ebolavirus, HeLa, read-out: SUDV-Gulu EC50 (uM)): 0.039 µM; WT EBOV-Mayinga SI50 (CC50/EC50) (WT EBOV-Mayinga): 706.84; WT EBOV-Mayinga SI90 (CC50/EC90) (WT EBOV-Mayinga): 209.99; EC50 (WT EBOV-Mayinga; Zaire ebolavirus, read-out: WT EBOV-Mayinga EC50 (uM)): 0.014 µM; EC90 (WT EBOV-Mayinga; Zaire ebolavirus, read-out: WT EBOV-Mayinga EC90 (uM)): 0.048 µM; EBOV-Kikwit SI50 (CC50/EC50) (EBOV (strain kikwit)): 90.33; EC50 (EBOV (strain kikwit); Zaire ebolavirus, HeLa, read-out: EBOV-Kikwit EC50 (uM)): 0.11 µM
3 | CC1C2CC3(C(=O)N[C@H]4CC[C@H](N)CC4)CC1CC(c1ccccc1)(C2)C3 (stereo partly drawn) [Example F1, trans-N-(4-aminocyclohexyl)-6-methyl-3-phenyladamantane-1-carboxamide] | 79 | 0.027 | 91 | 0.21 | 13300 | 92 | > 3 | 99 | 83 | 0.065 | 82 | 
